Tested on: patient suffering from hyperhidrosis
Experiment: Oral sulpiride given to a patient suffering from hyperhidrosis
Format: in vivo, human
Settings: 200 mg daily
Protocol: A dose of 200 mg Sulpiride was administered to a patient suffering from hyperhidrosis.

Question: What does the source list for `CCN1CCCC1CNC(=O)c1cc(S(N)(=O)=O)ccc1OC` (stereo not drawn) [Sulpiride, N-[(1-ethylpyrrolidin-2-yl)methyl]-2-methoxy-5-sulfamoyl-benzamide]?
Answer: duration of reduction in sweating: lasted for as long as the patient took a daily pill; effect on sweating: reduction in sweating; onset of reduction in sweating after beginning taking the drug: 72 h
